Results taken from patent US12054480B2, “Compounds for treating cannabinoid toxicity and acute cannabinoid overdose” (MAKScientific, LLC, priority 2020, dated 2024).

Tests used:
[1] = tested on: male CD-1 mice; assay: Reversal of CB1 SPC agonist induced neurotoxicity; assay type: in vivo, mouse; conditions: FIGS. 2A-2B; induced by suprapharmacological doses of CB1 SPC agonist AM2201; i.v., 30 min observation
[2] = tested on: male CD-1 mice; assay: Observation chamber test - CB1 antagonist mediated side effects; assay type: in vivo, mouse; conditions: FIG. 1; i.v., 60-minute observation; compared with rimonabant (i.p.)
Method: Observation chambers were used to score (count/duration) individual mouse intrinsic behavior. Male CD-1 mice (n=8) were placed in the chambers for 30 minutes to acclimate to the environment. Subjects were dosed i.v with a compound of Formula I-XI along with vehicle control groups and behavior are recorded over a 60-minute period and the results were analyzed. For statistical analysis, measurements were sampled in 5 min bins at the 5-10, 15-20, 25-30, 35-40, 45-50 and 55-60 min time intervals. The scratching response/frequency is defined based on well-established observations. Data was compared with that of rimonabant (i.p). The vehicle control group (vehicle (i.v.)) were included accordingly.

[3] = cited from earlier work

Row | Structure (SMILES) | neurotoxic effects: convulsions [1] | neurotoxic effects: tremors [1] | side effects (scratching episodes) [2] | onset ([3]; humans) [min] | time of peak effects ([3]; humans) [h] | apparent plasma elimination half-life ([3]; in some cases) [h]
1 | CCOC(=O)c1ccc(-c2c(CC)c(C(=O)NN3CCCCC3)nn2-c2ccc(Cl)cc2Cl)cc1 [Compound 1, Ethyl 4-(1-(2,4-Dichlorophenyl)-4-Ethyl-3-(Piperidin-1-Ylcarbamoyl)-1H-Pyrazol-5-Yl)Benzoate] | blocks | blocks | lesser side effects (scratching episodes) as compared to rimonabant | – | – | –
2 | CCCCCc1cc(O)c2c(c1)OC(C)(C)[C@@H]1CCC(C)=C[C@@H]21 [THC] | – | – | – | 30 to 60 | 2 to 4 | > 96
